Laboratory results from US20250186436A1 (4E Therapeutics, Inc., priority 2021, published 2025).
Read-outs that look alike come from different tables or passages of the source.

Columns and labels:
[1] = target: T1, recombinant full length human kinase MNK2 (Homo sapiens, UniProt Q9HBH9); assay: MNK2 radiometric kinase activity assay; format: biochemical
T1 construct: the recombinant full length human kinase MNK2; made in house; host or cells: insect cells

[2] = tested on: eIF4E phosphorylation at Serine 209 in HEK 293 cells; assay: eIF4E phosphorylation in HEK 293 cells (phospho-specific antibody, fluorescent plate reader); format: cell-based; conditions: Homo sapiens, HEK293; eIF4E phosphorylation at Serine 209, 2 hours exposure; read-out: HEK 293 cell;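 also: Well-level p-eIF4E immunofluorescence normalized to DAPI signal, expressed as percent eIF4E phosphorylation, with IC50 derived from concentration-response curves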
[3] = tested on: IL-6 evoked grimace in ICR mice; assay: IL-6 evoked grimace test; format: in vivo; conditions: PO 1 hr prior to IL-6 (4ET-03-053: 10 mg/kg)
Description: Male and female Institute for Cancer Research (ICR) mice were used in these experiments. Mice were bred in house at University of Texas at Dallas and used at between 12 and 24 weeks of age. Mice were habituated to plexiglass boxes of approximately 4×6 inches in size with openable tops. Habituation took place over 2 days with animals exposed to the boxes for at least 30 min. A blinded observer scored baseline grimacing using the method previously described by Mogil and colleagues (Langford D J, et al. “Coding of facial expressions of pain in the laboratory mouse” Nat Methods 7:447-449 (2010)). On test day, mice were given test compounds 1 hr prior to injection of interleukin 6 (human recombinant IL-6, R&D Systems) which was given at a dose of 0.1 ng in saline via an intraplantar injection as described previously (Moy J K, et al. “The MNK-eIF4E Signaling Axis Contributes to Injury-Induced Nociceptive Plasticity and the Development of Chronic Pain” J Neurosci. 37:7481-7499 (2017)). Test compounds were given orally (PO) via a flexible oral gavage canula built for mice. 4ET-03-053 is efficacious in the IL-6 evoked grimace test in mice (PO; 10 mg/kg).
Effect sizes were calculated per mouse by subtracting the baseline grimace score from the sum of the grimace scores for 1 and 3 hr time points.

[4] = Liver microsome stability; conditions: mouse, liver microsomes
[5] = tested on: P-gp (human MDR1, ABCB1); assay: MDCK-MDR1 permeability (blood-brain barrier permeability); conditions: dog
[6] = target: T2, recombinant full-length human kinase MNK1 (Homo sapiens, UniProt Q9BUB5); assay: MNK1 radiometric kinase activity assay; format: biochemical
T2 construct: the recombinant full-length human kinase MNK1; made in house; host or cells: insect cells
T2 sequence (Q9BUB5 whole entry): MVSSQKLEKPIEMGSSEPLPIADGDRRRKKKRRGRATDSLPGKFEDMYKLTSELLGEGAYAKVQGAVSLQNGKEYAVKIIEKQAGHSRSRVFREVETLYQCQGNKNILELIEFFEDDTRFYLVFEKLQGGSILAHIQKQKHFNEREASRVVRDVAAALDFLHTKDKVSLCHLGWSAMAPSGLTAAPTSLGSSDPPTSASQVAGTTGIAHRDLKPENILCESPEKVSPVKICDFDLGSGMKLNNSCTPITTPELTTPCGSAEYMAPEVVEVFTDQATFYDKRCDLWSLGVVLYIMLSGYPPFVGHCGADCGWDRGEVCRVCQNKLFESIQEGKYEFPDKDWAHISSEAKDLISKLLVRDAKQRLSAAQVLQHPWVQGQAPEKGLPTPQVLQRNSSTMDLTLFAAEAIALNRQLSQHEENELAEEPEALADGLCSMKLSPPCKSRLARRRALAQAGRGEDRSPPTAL

[7] = tested on: P-gp (human MDR1, ABCB1); assay: in vitro; conditions: dog, MDCK-MDR1
[8] = in vitro; conditions: mouse, microsomes
[9] = tested on: Wistar rats; assay: Intravenous self-administration with oxycodone and saline regimen; format: in vivo; conditions: Wistar rats; for Mean Difference, Šídák's multiple comparisons test: numbers of infusions
Description: Ten male and eleven female Wistar rats (Charles River, Hollister, CA) were used in this study. Rats were housed in groups of 2-3 per cage prior to surgery, and then individually housed to protect their catheters, in a temperature-controlled (22° C.) vivarium on a 12/12h light/dark cycle (lights off at 8:00 AM) with ad libitum access to food and water. The rats acclimated to the animal facility for at least 7 days before surgery. All procedures adhered to the National Institutes of Health Guide for the Care and Use of Laboratory Animals and were approved by the Institutional Animal Care and Use Committee of The Scripps Research Institute.
For surgery, rats were anesthetized with 2 to 3% isoflurane. They were implanted with a silastic catheter (0.3 mm i.d.×0.64 mm o.d.; Dow Corning Co. Midland, MI) into the right external jugular vein under aseptic conditions. The distal end of the catheter was subcutaneously threaded to the back of the rat where it exited via a metal guide cannula (22G; Plastics One Inc., Roanoke, VA) that was anchored at the back of the rat and closed with a small plastic cap and metal cover cap to keep the inside part of the catheter clean and protected (Caine S B, et al. “Effects of dopamine D-1 and D-2 antagonists on cocaine self-administration under different schedules of reinforcement in the rat” J Pharmacol Exp Ther. 270(1):209-18 (1994); Wee S, et al. “Effects of dose and session duration on cocaine self-administration in rats” J Pharmacol Exp Ther. 320(3):1134-43 (2007); Zorrilla E P, et al. “Extended access cocaine self-administration differentially activates dorsal raphe and amygdala corticotropin-releasing factor systems in rats” Addict Biol. 17(2):300-8 (2012); Valtcheva M V, et al. “Surgical extraction of human dorsal root ganglia from organ donors and preparation of primary sensory neuron cultures” Nat Protoc. 11:1877-1888 (2016)). All incisions were closed using veterinary tissue adhesive. After surgery, rats were given analgesic (Flunixin, 2.5 mg/kg s.c.).
Rats were allowed 5-7 days for recovery prior to self-administration.
The patency of catheters in the rats was tested using an ultra-short-acting barbiturate methohexital sodium (Brevital, Eli Lilly, Indianapolis, 1N, 10 mg/mL, 2 mg/rat) every 10-12 days during the study. Generally, a total loss of muscle tone within 3 s after a methohexital sodium injection indicates the patency of a catheter. Any animal that failed the test was excluded from the study.
During experimental sessions, each rat was placed in a standard operant chamber, which was placed in a light- and sound-attenuating cubicle (28×26×20 cm; Med Associates Inc., St. Albans, VT). The front door and the back wall of the chamber were made of transparent plastic, and the other walls were opaque metal. The chamber had two retractable response levers mounted on one side of the opaque walls. A stimulus light was mounted above each lever. A drug injection was delivered by a syringe pump (Razel Scientific Instruments, Georgia, VT) located on top of the cubicle. Experimental sessions were controlled and recorded by a PC computer with custom interface and software in the experimental room.
Experimental sessions were conducted once a day, 5-7 days a week during the dark (active) cycle. After being flushed with 0.9% saline, a rat's indwelling catheter was connected to a tube that exited the chamber through a metal spring and a swivel and was connected to a syringe pump. After the drug delivery system was connected to the rat, the chamber was closed, and the 2 hr session was started immediately. The start of a session was signaled by the presentation of two response levers into the chamber. […] During an injection, stimulus lights above both levers were illuminated and lasted throughout a time-out period (20 s) that followed each injection. Pressing the left lever was counted but had no other programmed consequences. […]

[10] = tested on: eIF4E phosphorylation in hDRGs; assay: p-eIF4E immunofluorescence in cultured human dorsal root ganglion cells (hDRGs); format: cell-based; conditions: OSM 10 and 50 ng/ml, 30 min
Description: For all human DRG experiments, DRGs were recovered from organ donors at the Southwest Transplant Alliance under an IRB approved protocol at University of Texas at Dallas. DRGs were recovered within 3 hrs of cross clamp. DRGs were recovered and taken back to the University of Texas lab where they were cultured using the protocol described previously. Cultures were grown on glass coverslips for microscopy. Coverslips were coated with poly-D-lysine and laminin to improve neuronal adherence to the coverslips. Cultures of human DRG neurons were grown for 4-7 days prior to treatment with OSM. OSM treatment was done in culture media for a period of 30 min. Cells were stained with antibodies using the same protocol as described above for HEK293 cells. Imaging was done on an Olympus FV1200 microscope and image analysis was done with CellSens software. Statistical analysis was done with Graphpad Prism V8.
Human DRG recovery and other experimental protocols were the same as described herein.

[11] = radiometric activity assay, read-out: MNK2
[12] = radiometric activity assay, read-out: MNK1

T1 sequence (Q9HBH9 whole entry): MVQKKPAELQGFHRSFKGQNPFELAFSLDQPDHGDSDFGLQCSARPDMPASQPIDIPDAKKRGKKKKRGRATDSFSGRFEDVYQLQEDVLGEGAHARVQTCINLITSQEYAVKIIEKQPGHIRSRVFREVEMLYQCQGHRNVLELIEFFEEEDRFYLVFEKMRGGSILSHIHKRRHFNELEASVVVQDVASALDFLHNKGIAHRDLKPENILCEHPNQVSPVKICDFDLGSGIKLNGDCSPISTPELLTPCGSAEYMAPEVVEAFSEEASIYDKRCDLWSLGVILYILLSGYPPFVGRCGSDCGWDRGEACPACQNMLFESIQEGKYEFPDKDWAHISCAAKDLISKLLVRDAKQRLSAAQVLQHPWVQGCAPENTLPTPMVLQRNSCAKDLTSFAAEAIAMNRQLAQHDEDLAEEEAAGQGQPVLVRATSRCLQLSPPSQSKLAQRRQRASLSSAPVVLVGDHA

## Cc1cc(Nc2cc(N)ncn2)c(=O)n2c1C(=O)NC21CCCC2(CC2)CC1 (racemic) [rac-4ET-01-027, 6″-((6-Aminopyrimidin-4-yl)amino)-8″-methyl-2″H-dispiro[cyclopropane-1,1′-cycloheptane-4′,3″-imidazo[1,5-a]pyridine]-1″,5″-dione]
[1]; [11]
  IC50: 1.6 nM
[2]
  IC50: 12.6 nM
[3]
  efficacy in the IL-6 evoked grimace test: efficacious
[4]
  half-life: 1.11 h
[5]
  Papp A→B at 5 uM: 52.9 ×10⁻⁶ cm/s
  Papp B→A at 5 uM: 62.1 ×10⁻⁶ cm/s
  efflux ratio at 5 uM: 1.2
[6]; [12]
  IC50: 35.2 nM

## Cc1cc(Nc2cc(N)ncn2)c(=O)n2c1C(=O)NC21C=CC2(CC2)CC1 (stereo not shown) [4ET-01-051, 6″-((6-Aminopyrimidin-4-yl)amino)-8″-methyl-2″H-dispiro[cyclopropane-1,1′-cyclohexane-4′,3″-imidazo[1,5-a]pyridin]-2′-ene-1″,5″-dione]
[1]; [11]
  IC50: 3.1 nM
[2]
  IC50: 7.3 nM
[3]
  efficacy in the IL-6 evoked grimace test: efficacious
[4]
  half-life: 13.9 h
[5]
  Papp A→B at 5 uM: 22.7 ×10⁻⁶ cm/s
  Papp B→A at 5 uM: 52.4 ×10⁻⁶ cm/s
  efflux ratio at 5 uM: 2.3
[6]; [12]
  IC50: 58.6 nM

## Cc1cc(Nc2cc(NC(=O)C3CC3)ncn2)c(=O)n2c1C(=O)NC21CCC2(CC1)CN2 (stereo not shown) [4ET-03-040, N-(6-((8″-methyl-1″,5″-dioxo-1″,5″-dihydro-2″H-dispiro[aziridine-2,1′-cyclohexane-4′,3″-imidazo[1,5-a]pyridin]-6″-yl)amino)pyrimidin-4-yl)cyclopropanecarboxamide]
[1]
  IC50: 2 nM
[7]
  Papp A→B at 5 uM: 0.6 ×10⁻⁶ cm/s
  Papp B→A at 5 uM: 1.6 ×10⁻⁶ cm/s
[2]
  IC50: 27.4 nM
[8]
  half-life: 1.28 h
[5]
  efflux ratio at 5 uM: 2.4
[6]
  IC50: 38.6 nM

## Cc1cc(Nc2cc(NC(=O)C3CC4(CNC4)C3)ncn2)c(=O)n2c1C(=O)NC21CCC2(CC2)CC1 [4ET-03-057, N-(6-((8″-methyl-1″,5″-dioxo-1″,5″-dihydro-2″H-dispiro[cyclopropane-1,1′-cyclohexane-4′,3″-imidazo[1,5-a]pyridin]-638-yl)amino)pyrimidin-4-yl)-2-azaspiro[3.3]heptane-6-carboxamide]
[1]; [11]
  IC50: 3.4 nM
[7]
  Papp A→B: 0.3 ×10⁻⁶ cm/s
  Papp B→A: 1.1 ×10⁻⁶ cm/s
[2]
  IC50: 8.7 nM
[4]
  half-life: 3.65 h
[6]; [12]
  IC50: 61.6 nM

## Cc1cc(Nc2cc(NCCO)ncn2)c(=O)n2c1C(=O)NC21CCC2(CC2)CC1 [4ET-03-074, 6″-((6-((2-hydroxyethyl)amino)pyrimidin-4-yl)amino)-8″-methyl-2″H-dispiro[cyclopropane-1,1′-cyclohexane-4′,3″-imidazo[1,5-a]pyridine]-1″,5″-dione]
[1]; [11]
  IC50: 3.1 nM
[2]
  IC50: 11.3 nM
[4]
  half-life: 1.87 h
[5]
  Papp A→B at 5 uM: 7.6 ×10⁻⁶ cm/s
  Papp B→A at 5 uM: 58.1 ×10⁻⁶ cm/s
  efflux ratio at 5 uM: 7.6
[6]; [12]
  IC50: 45.9 nM

## COc1ccc2c3c1O[C@H]1C(=O)CC[C@@]4(O)[C@@H](C2)N(C)CC[C@]314 [oxycodone, oxycondone, reference compound]
[9]; 0.15 mg/kg oxycodone, both times this occurred
  numbers of infusions, multiple comparisons test: oxycodone and subsequent saline: significant differences
[9]; 0.15 mg/kg oxycodone vs. saline (3rd comparison, first occurrence)
  Mean Difference, Šídák's multiple comparisons test: 6.547
[9]; 0.15 mg/kg oxycodone vs. saline (6th comparison, second occurrence)
  Mean Difference, Šídák's multiple comparisons test: 9.006

B1: oncostatin M (protein, UniProt P13725 26-221, looked up)
Oncostatin-M: AAIGSCSKEYRVLLGQLQKQTDLMQDTSRLLDPYIRIQGLDVPKLREHCRERPGAFPSEETLRGLGRRGFLQTLNATLGCVLHRLADLEQRLPKAQDLERSGLNIEDLEKLQMARPNILGLRNNIYCMAQLLDNSDTAEPTKAGRGASQPPTPTPASDAFQRKLEGCRFLHGYHRFMHSVGRVFSKWGESPNRSRR
[10]
  phosphorylation of eIF4E in hDRGs (stimulus): increased phosphorylation of eIF4E
